Measured values: patent publication US10828305B2 (SHANGHAI PHARMACEUTICALS HOLDING CO., LTD., priority 2016, dated 2020)

How the values were obtained:
[1] = target: ErbB2 kinase (Homo sapiens, UniProt P04626); experiment: Enzymatic experiment on ErbB2 (HTRF kinEASE-TK); format: biochemical; settings: ATP 4 μM; read-out: Kinase IC50 (nM) in vitro ErbB2
Method in brief: (§1)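 HTRF kinEASE-TK with biotinylated TK substrate in HEPES pH 7.0 buffer containing MnCl2, MgCl2 and DTT; ErbB2 at 0.06 ng/μl with 4 μM ATP, EGFR at 0.06 units/μl with 1.65 μM ATP, 30 min at room temperature after 5 min enzyme/substrate–compound preincubation. Ten-point 3-fold dilutions; Eu antibody/SA-XL665 detection, 665/620 ratio.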

[2] = target: EGFR kinase (Homo sapiens, UniProt P00533); experiment: Enzymatic experiment on EGFR (HTRF kinEASE-TK); format: biochemical; settings: ATP 1.65 μM; read-out: Kinase IC50 (nM) in vitro EGFR
Method in brief: as §1

[3] = system: N87; experiment: Proliferation inhibition assay in vitro, N87 (CellTiter-Glo); format: cell-based; settings: Homo sapiens; 72 hours; read-out: IC50(nM) cell N87
Method in brief: (§2)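 Cells were seeded at 8.8×10^4 cells/mL for BT-474 or 6.6×10^4 cells/mL for N87 and grown overnight. Compound was added at 9 concentrations in duplicate for 72 h at 37 °C, 5% CO2. Viability was measured by CellTiter-Glo.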

[4] = system: BT-474; experiment: Proliferation inhibition assay in vitro, BT-474 (CellTiter-Glo); format: cell-based; settings: Homo sapiens, 72 hours, read-out: IC50(nM) cell BT-474
Method in brief: as §2

Sequence of EGFR kinase (P00533 25-1210): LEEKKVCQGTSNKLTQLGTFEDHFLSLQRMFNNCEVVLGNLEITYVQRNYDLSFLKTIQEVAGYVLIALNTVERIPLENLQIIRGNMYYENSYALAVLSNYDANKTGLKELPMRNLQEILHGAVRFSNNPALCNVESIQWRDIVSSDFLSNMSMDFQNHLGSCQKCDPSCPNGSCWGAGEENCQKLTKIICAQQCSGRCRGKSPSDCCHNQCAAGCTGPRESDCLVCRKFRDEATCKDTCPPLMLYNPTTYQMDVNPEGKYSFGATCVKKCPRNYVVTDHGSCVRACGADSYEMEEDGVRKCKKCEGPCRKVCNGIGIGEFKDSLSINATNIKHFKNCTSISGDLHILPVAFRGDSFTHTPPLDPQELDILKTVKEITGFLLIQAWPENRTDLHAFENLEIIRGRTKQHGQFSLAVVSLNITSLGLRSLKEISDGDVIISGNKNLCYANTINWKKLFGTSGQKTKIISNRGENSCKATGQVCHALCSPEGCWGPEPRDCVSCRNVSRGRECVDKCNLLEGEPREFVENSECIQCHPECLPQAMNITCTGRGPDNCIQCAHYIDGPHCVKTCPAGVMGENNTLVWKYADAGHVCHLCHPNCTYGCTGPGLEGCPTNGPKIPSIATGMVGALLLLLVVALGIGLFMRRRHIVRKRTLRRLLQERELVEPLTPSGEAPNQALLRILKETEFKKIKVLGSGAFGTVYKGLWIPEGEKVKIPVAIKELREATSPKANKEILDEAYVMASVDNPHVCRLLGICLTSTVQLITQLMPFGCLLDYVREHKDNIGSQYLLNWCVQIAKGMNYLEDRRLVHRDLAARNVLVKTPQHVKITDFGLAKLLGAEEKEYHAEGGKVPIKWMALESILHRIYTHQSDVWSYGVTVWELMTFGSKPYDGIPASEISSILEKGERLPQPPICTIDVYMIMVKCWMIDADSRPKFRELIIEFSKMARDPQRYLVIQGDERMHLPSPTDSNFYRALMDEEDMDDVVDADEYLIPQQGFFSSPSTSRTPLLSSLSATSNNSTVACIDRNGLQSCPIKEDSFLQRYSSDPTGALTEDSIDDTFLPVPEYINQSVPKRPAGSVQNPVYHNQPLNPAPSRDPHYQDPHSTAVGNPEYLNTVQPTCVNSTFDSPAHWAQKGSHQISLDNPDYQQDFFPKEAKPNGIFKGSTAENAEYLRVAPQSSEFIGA
Sequence of ErbB2 kinase (P04626 23-1255): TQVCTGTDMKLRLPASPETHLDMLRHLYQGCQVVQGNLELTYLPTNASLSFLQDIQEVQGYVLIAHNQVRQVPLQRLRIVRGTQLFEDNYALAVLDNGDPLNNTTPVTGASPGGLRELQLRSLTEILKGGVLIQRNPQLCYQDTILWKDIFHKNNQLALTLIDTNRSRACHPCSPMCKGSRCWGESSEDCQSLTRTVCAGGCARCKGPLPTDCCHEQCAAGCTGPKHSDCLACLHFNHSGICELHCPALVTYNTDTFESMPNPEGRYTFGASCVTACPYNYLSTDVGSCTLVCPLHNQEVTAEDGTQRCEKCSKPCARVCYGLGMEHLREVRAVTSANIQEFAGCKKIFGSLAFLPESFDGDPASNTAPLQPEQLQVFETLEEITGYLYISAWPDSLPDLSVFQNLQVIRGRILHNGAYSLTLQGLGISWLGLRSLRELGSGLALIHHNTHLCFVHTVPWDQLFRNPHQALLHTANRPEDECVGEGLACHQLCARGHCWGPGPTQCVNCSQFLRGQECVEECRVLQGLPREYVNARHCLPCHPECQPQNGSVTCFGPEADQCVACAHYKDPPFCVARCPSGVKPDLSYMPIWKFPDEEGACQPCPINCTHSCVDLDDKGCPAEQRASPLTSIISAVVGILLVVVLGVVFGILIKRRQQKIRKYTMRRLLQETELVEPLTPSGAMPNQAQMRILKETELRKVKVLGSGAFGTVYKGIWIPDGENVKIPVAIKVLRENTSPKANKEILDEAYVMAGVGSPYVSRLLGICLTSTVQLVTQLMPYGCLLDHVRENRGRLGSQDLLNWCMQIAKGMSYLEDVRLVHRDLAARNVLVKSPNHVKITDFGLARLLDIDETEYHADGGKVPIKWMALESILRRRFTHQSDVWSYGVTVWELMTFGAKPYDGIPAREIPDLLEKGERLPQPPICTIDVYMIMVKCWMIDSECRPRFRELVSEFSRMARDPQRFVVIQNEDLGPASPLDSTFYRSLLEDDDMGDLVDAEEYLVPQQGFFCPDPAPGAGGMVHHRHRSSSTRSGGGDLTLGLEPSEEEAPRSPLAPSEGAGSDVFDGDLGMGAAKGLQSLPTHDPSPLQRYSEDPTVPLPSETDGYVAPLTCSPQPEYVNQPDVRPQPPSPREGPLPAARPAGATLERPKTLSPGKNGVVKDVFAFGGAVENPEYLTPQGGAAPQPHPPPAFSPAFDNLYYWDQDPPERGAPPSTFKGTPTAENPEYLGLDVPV

Compound `Cc1cc(Nc2ncnc3ccc(NC4=NC(C)(C)CO4)cc23)ccc1Oc1cc2nncn2cn1` [Embodiment 4, N^4-(4-([1,2,4]triazolo[4,3-c]pyrimidin-7-yloxy)-3-methylphenyl)-N^6-(4,4-dimethyl-4,5-dihydrooxazol-2-yl)quinazoline-4,6-diamine] has an IC50 [1] of 2.4 nM, an IC50 [2] of 44.3 nM and an IC50 [3] of 23 nM. For the same compound, the IC50 [4] was 19.7 nM.
